# Test results as given in paper PMC13316043, “Structural basis of NSD2 degradation via targeted recruitment of SCF-FBXO22” (Nature Communications, 2026).
# Target: T1, NSD2 (Homo sapiens, UniProt O96028)
# T1 construct: endogenous in cells; host or cells: U2OS (ATCC)
# T1 sequence (O96028 1-1365): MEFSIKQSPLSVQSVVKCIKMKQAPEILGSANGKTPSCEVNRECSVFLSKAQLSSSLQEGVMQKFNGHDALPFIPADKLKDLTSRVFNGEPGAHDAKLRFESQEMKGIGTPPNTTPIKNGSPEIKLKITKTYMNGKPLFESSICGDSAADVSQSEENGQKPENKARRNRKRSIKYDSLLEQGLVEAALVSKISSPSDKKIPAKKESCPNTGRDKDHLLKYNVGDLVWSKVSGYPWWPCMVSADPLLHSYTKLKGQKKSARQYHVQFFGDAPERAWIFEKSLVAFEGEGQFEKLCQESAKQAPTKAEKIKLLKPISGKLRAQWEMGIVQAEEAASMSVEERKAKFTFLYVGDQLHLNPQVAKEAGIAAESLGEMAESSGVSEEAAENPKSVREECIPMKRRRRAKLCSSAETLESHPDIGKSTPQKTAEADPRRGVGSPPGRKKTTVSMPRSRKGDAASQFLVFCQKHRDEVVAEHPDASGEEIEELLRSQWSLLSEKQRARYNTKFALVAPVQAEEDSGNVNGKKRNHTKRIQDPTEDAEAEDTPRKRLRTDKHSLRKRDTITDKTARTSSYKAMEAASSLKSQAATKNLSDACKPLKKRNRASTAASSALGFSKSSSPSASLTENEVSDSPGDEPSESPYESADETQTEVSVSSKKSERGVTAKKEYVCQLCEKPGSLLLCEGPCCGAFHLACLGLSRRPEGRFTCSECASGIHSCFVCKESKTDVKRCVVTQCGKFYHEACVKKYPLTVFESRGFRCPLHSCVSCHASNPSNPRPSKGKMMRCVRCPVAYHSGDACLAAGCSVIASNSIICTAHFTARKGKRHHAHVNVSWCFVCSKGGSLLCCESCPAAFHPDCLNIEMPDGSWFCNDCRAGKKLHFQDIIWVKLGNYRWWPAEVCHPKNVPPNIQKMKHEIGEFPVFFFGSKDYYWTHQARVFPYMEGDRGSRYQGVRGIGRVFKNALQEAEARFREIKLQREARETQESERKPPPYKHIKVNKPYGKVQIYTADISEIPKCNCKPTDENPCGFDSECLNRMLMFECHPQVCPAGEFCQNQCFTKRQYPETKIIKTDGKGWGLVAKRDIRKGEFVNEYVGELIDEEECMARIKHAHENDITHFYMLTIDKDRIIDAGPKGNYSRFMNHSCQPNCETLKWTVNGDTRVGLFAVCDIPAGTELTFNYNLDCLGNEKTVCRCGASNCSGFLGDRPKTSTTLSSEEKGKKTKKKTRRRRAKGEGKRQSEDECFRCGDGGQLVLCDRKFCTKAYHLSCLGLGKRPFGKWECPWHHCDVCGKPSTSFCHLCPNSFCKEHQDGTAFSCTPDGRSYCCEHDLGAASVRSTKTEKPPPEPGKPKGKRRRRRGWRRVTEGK
# Test: Western blot of NSD2 in U2OS cells
# Format: cell-based
# Details: 300 nM, 6 h
# Experimental: HEK293T and U2OS were obtained from ATCC and cultured in high-glucose-containing Dulbecco’s Modified Eagle’s Medium (DMEM; Gibco; cat. #11995) supplemented with 10% fetal bovine serum (VWR) and 1% penicillin/streptomycin (Gibco). Cells were treated with either UNC10415667, UNC12149, UNC12567, hemin (Sigma; cat. #H9039), or DMSO control for the indicated times and analyzed by western blot using standard procedures. Briefly, cells were lysed on ice for 15 min in NETN lysis buffer (20 mM Tris pH 8.0, 100 mM NaCl, 0.5 mM EDTA, 0.5% NP40) supplemented with 10 µg/mL aprotinin, 10 µg/mL leupeptin, 10 µg/mL pepstatin A, 1 mM sodium orthovanadate, 1 mM sodium fluoride, and 1 mM AEBSF (4-[two aminoethyl] benzenesulfonyl fluoride). Cell lysates were centrifuged at 20,000×g in a benchtop microcentrifuge at 4 °C for 10 min. Protein concentration was determined by Bradford assay (Bio-Rad; cat. #5000006). Protein concentration was normalized using Laemmli buffer. Samples were heated for 5 min at 95°C in a dry water-bath. Samples were separated on TGX stain free gels (Bio-Rad) transferred to nitrocellulose membrane and blocked in 5% non-fat dry milk (Biorad; cat. #1706404) diluted in 1x TBS-T (137 mM NaCl, 2.7 mM KCl, 25 mM Tris pH 7.6, 1% Tween-20). […]
smiles,measurement,value
Cc1cc(C=O)ccc1C(=O)N1CCc2cc(NC(=O)c3ccc(CN(C(=O)c4ccc5c(c4)OCC(=O)N5)C4CC4)cc3)ccc2C1 [UNC12149],NSD2 level by western blot,undetectable
